How the values were obtained:
hROMK (human Kir1.1) = hROMK (human Kir1.1) (Homo sapiens (Human), UniProt P48048); assay: cell-based; conditions: CHO T-Rex hROMK stable cell line; thallium flux; 10-point concentration response curve; read-out: Human ROMK Th Flux IC50
Procedure: Solutions and reagents: Thallium flux assay was performed using FluxOR kit (F10017, Life Technologies). Loading buffer, assay buffer and stimulus buffer were prepared using kit components. HBSS (Hank's balanced salt solution, Cat#14025-092) was purchased separately from Life Technologies.
To prepare 10 ml of loading buffer: 10 μl of FluxOR dye (reconstituted in DMSO) was first added to 100 μl of powerload concentrate and this mix along with 100 μl of Probenicid (100×) was then added to 9.79 ml of HBSS. Assay buffer (10 ml) was prepared by addition of 2 ml of FluxOR chloride free buffer (5×), 100 μl of Probenicid (100×), and 0.2 ml of Ouabain (13.77 mM) to 7.7 ml of deionized water. Stimulus buffer was composed of 15 mM Tl2SO4, 0.75 mM K2SO4 in FluxOR chloride free buffer (diluted to 1× using deionized water). The final concentration of Tl2SO4 and K2SO4 in the assay plate was 3 mM and 0.15 mM, respectively.
Plating and induction of cells: The CHO T-Rex hROMK (human Kir1.1) stable cell line was maintained in Ham's F12 media supplemented with 10% FBS, 1% Penicillin-Streptomycin, 500 μg/ml Zeocin and 10 μg/ml Blasticidin at 37° C. in a 5% CO2 incubator. One day before the experiment, the cells were dissociated by incubation with Versene solution (15040-066, Life Technologies) for 10 minutes at 37° C. followed by addition of growth media. The cell suspension was centrifuged at 1200 rpm for 5 min. After discarding the supernatant, the cells were resuspended in fresh growth media and cell concentration was determined using a hemocytometer. Next, 0.5 μg/ml of Doxycycline was added to the cell suspension to induce hROMK channel expression and 50 μl (10,000 cells/well) of cell suspension was added to each well of a poly-D lysine coated 384 well black, optically clear bottom plate (6007718, Perkin Elmer). The assay plate was kept at 37° C. in a 5% CO2 incubator.
Assay protocol: On the day of experiment, media was removed and loading buffer was added (30 μl/well) to the assay plate. The cells were incubated in the loading buffer for 30 minutes at 37° C. The loading buffer was then replaced by assay buffer (30 μl/well) followed by addition of test compounds or controls. The cells were incubated with compounds for 30 minutes and the plate was then mounted on FlexStation (Molecular Devices) for fluorescence read out with excitation and emission wavelengths at 488 and 525 nm, respectively. Each well was read for 90 sec at 2 sec interval and the stimulus buffer was added after 20 seconds of baseline recording. The final DMSO concentration was either 0.5 or 1% in the assay plate. Positive and negative controls were defined by addition of DMSO or 3 μM of a standard ROMK inhibitor, respectively, to the wells instead of a test compound.
A 10-point concentration response curve was used to estimate the IC50 value of test compounds.

hERG channels = hERG channels (Homo sapiens (Human), UniProt Q12809); assay: hERG Manual Patch Clamp Assay; assay type: cell-based; conditions: human, HEK 293 cells stably expressing hERG channels, pH 7.4, 1 uM, read-out: hERG EP % Inh @ 1 uM
Chain of hERG channels (Q12809 whole entry): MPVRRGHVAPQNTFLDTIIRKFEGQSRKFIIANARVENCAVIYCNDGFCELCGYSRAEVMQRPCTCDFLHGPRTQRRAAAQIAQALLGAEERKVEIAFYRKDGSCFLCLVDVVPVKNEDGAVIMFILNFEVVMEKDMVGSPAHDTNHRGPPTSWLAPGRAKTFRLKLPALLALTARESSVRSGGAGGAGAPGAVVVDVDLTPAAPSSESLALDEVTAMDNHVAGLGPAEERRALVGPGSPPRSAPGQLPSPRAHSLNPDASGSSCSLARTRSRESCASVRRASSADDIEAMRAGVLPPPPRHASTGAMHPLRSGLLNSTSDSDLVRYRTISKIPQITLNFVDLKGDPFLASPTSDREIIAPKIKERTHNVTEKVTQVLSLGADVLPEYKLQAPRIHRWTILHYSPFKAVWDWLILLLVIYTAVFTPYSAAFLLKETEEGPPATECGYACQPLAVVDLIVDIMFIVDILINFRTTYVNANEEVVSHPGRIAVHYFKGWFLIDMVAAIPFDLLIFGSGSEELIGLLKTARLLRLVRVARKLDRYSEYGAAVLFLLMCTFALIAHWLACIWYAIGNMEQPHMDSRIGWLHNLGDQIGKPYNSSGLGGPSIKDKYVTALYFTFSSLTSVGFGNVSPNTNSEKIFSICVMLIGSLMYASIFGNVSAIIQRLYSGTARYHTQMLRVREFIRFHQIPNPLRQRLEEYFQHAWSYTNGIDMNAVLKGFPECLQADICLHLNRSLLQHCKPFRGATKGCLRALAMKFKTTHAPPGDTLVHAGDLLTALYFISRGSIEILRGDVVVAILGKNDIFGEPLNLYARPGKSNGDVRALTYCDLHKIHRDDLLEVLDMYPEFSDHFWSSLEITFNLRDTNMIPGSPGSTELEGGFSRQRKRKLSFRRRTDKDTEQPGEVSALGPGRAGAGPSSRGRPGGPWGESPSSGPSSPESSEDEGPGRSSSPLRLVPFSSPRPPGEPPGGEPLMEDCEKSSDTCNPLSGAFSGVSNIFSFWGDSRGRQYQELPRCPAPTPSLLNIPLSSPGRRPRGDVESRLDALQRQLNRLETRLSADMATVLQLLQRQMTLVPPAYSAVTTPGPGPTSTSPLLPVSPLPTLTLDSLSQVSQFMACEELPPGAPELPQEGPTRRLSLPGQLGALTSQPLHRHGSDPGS
Procedure: hERG electrophysiology assay: The experimental compounds were assessed for hERG activity on HEK 293 cells stably expressing hERG channels using patch clamp technique. Coverslips plated with hERG expressing cells were placed in the experimental chamber and were perfused with a solution composed of (in mM): 140 NaCl, 4 KCl, 1.8 CaCl2, 1 MgCl2, 10 Glucose, 10 HEPES (pH 7.4, NaOH) at room temperature. Borosilicate patch pipettes had tip resistances of 2-4 Mohms when filled with an internal solution containing: 130 KCl, 1 MgCl2, 1 CaCl2, 10 EGTA, 10 HEPES, 5 ATP-K2 (pH 7.2, KOH). The cells were clamped at −80 mV in whole cell configuration using an Axopatch 200B (Axon instruments, Union City, Calif.) patch clamp amplifier controlled by pClamp (Axon instruments) software. Upon formation of a gigaseal, the following voltage protocol was repeatedly (0.05 Hz) applied to record tail currents: depolarization step from −80 mV to +20 mV for 2 seconds followed by a hyperpolarization step to −65 mV (3 seconds) to elicit tail currents. Compounds were applied after stabilization of tail current. First, tail currents were recorded in presence of extracellular solution alone (control) and subsequently, in extracellular solution containing increasing compound concentrations. Each compound concentration was applied for 2-5 minutes. The percentage inhibition at each concentration was calculated as reduction in peak tail current with respect to the peak tail current recorded in the presence of control solution. Data analysis was performed in a custom made template. The percent inhibitions at different concentrations were plotted to obtain a concentration response curve, which was subsequently fitted with a four parameter equation to calculate hERG IC50 value.

Chain of hROMK (human Kir1.1) (P48048 whole entry): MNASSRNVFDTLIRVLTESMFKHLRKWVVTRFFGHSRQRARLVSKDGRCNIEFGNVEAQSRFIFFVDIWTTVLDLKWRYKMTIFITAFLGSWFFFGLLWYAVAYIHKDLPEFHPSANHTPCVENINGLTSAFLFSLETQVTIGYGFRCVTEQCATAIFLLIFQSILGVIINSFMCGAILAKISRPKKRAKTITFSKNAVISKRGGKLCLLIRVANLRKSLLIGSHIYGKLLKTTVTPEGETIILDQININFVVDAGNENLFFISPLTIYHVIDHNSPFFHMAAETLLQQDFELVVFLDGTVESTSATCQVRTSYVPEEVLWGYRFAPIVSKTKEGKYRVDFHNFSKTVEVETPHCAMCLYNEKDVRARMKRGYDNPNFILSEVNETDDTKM

| SMILES | IC50 (hROMK (human Kir1.1)) [nM] | inhibition at 1 µM (hERG channels) [%] |
| --- | --- | --- |
| COC1CC(c2ccc3c(c2C)COC3=O)CN(Cc2cnn(-c3cc(C)c(C#N)cn3)c2)C1 (single isomer, unassigned) [Example 200-II, 6-(4-((3-methoxy-5-(4-methyl-1-oxo-1,3-dihydroisobenzofuran-5-yl)piperidin-1-yl)methyl)-1H-pyrazol-1-yl)-4-methylnicotinonitrile] | 64 | 27 |
| Cc1cc(-n2cc(CN3CC(F)CC(c4ccc5c(c4C)COC5=O)C3)nn2)ncc1C#N (single isomer, unassigned) [Example 203-I, 6-(4-((3-fluoro-5-(4-methyl-1-oxo-1,3-dihydroisobenzofuran-5-yl)piperidin-1-yl)methyl)-1H-1,2,3-triaozl-1-yl)-4-methylnicotinonitrile] | 43 | 16 |
| Cc1cc(-n2cc(CN3CC(c4ccc5c(c4C)COC5=O)NC(C(F)F)C3)cn2)ncc1C#N (single isomer, unassigned) [Example 205-I, 6-(4-((3-(difluoromethyl)-5-(4-methyl-1-oxo-1,3-dihydroisobenzofuran-5-yl)piperazin-1-yl)methyl)-1H-pyrazol-1-yl)-4-methylnicotinonitrile] | 71 | 10 |
| Cc1cc(-n2cc(CN3CC(O)C(c4ccc5c(c4C)COC5=O)C3)cn2)ncc1C#N (single isomer, unassigned) [Example 211-I, 6-(4-((3-hydroxy-4-(4-methyl-1-oxo-1,3-dihydroisobenzofuran-5-yl)pyrrolidin-1-yl)methyl)-1H-pyrazol-1-yl)-4-methylnicotinonitrile] | 30 | 58 |
| Cc1cc(-n2cc(CN3CC(CO)CC(c4ccc5c(c4C)COC5=O)C3)cn2)ncc1C#N (single isomer, unassigned) [Example 261-II, 6-(4-((3-(hydroxymethyl)-5-(4-methyl-1-oxo-1,3-dihydroisobenzofuran-5-yl)piperidin-1-yl)methyl)-1H-pyrazol-1-yl)-4-methylnicotinonitrile] | 27 | 44 |
| Cc1cc(-c2cc(CN3CC(c4ccc5c(c4C)COC5=O)NC(C)(C)C3)on2)ncc1C#N (single isomer, unassigned) [Example 268-I, 6-(5-((3,3-dimethyl-5-(4-methyl-1-oxo-1,3-dihydroisobenzofuran-5-yl)piperazin-1-yl)methyl)isoxazol-3-yl)-4-methylnicotinonitrile] | 20 | 9 |
| COc1c(CN2CCN[C@H](c3ccc4c(c3C)COC4=O)C2)cnn1-c1cc(C)c(C#N)cn1 [Example 6-I, (R)-6-(5-methoxy-4-((3-(4-methyl-1-oxo-1,3-dihydroisobenzofuran-5-yl)piperazin-1-yl)methyl)-1H-pyrazol-1-yl)-4-methylnicotinonitrile] | 40 | 38 |
| Cc1cc(-n2cc(CN3C[C@@H](c4ccc5c(c4C)COC5=O)OC3=O)cn2)ncc1C#N [Example 9-I, (R)-4-methyl-6-(4-((5-(4-methyl-1-oxo-1,3-dihydroisobenzofuran-5-yl)-2-oxooxazolidin-3-yl)methyl)-1H-pyrazol-1-yl)nicotinonitrile] | 44 | 47 |
| COc1cc(-n2cc(CCN3CCO[C@H](c4ccc5c(c4C)COC5=O)C3)cn2)ncc1C#N [Example 11-I, (R)-4-methoxy-6-(4-(2-(2-(4-methyl-1-oxo-1,3-dihydroisobenzofuran-5-yl)morpholino)ethyl)-1H-pyrazol-1-yl)nicotinonitrile] | 30 | 40 |
| Cc1c([C@@H]2CN(Cc3cnc(-n4cnc(C#N)c4)s3)CCN2)ccc2c1COC2=O [Example 21-I, (R)-1-(5-((3-(4-methyl-1-oxo-1,3-dihydroisobenzofuran-5-yl)piperazin-1-yl)methyl)thiazol-2-yl)-1H-imidazole-4-carbonitrile] | 93 | 8.5 |
| Cc1c([C@@H]2CN(Cc3cnn(-c4ccc5oc(=O)n(C)c5c4)c3)CCO2)ccc2c1COC2=O [Example 25-I, (R)-3-methyl-5-(4-((2-(4-methyl-1-oxo-1,3-dihydroisobenzofuran-5-yl)morpholino)methyl)-1H-pyrazol-1-yl) benzo[d]oxazol-2(3H)-one] | 51 | 8.7 |
| COc1c(CN2CCO[C@H](c3ccc4c(c3C)COC4=O)C2)cnn1-c1cc(C)c(C#N)cn1 [Example 26-I, (R)-6-(5-methoxy-4-((2-(4-methyl-1-oxo-1,3-dihydroisobenzofuran-5-yl)morpholino)methyl)-1H-pyrazol-1-yl)-4-methylnicotinonitrile] | 69 | 20 |
| COc1cc(-n2cnc(CN3CCO[C@H](c4ccc5c(c4C)COC5=O)C3)c2)ncc1C#N [Example 27-I, (R)-4-methoxy-6-(4-((2-(4-methyl-1-oxo-1,3-dihydroisobenzofuran-5-yl)morpholino)methyl)-1H-imidazol-1-yl) nicotinonitrile] | 32 | 11 |
| Cc1c([C@@H]2CN(Cc3cn(-c4ccc(C#N)cn4)cn3)CCO2)ccc2c1COC2=O [Example 28-I, (R)-6-(4-((2-(4-methyl-1-oxo-1,3-dihydroiso-benzofuran-5-yl)morpho-lino)methyl)-1H-imidazol-1-yl)nicotino-nitrile] | 85 | 15 |
| COc1cc(-c2ncc(CN3CCO[C@H](c4ccc5c(c4C)COC5=O)C3)s2)ncc1C#N [Example 32-I, (R)-4-methoxy-6-(5-((2-(4-methyl-1-oxo-1,3-dihydroisobenzofuran-5-yl)morpholino)methyl)thiazol-2-yl)nicotino-nitrile] | 24 | 6.2 |
| COc1cc(-c2ccc(CN3CCO[C@H](c4ccc5c(c4C)COC5=O)C3)cn2)ncc1C#N [Example 35-I, (R)-4-methoxy-5′-((2-(4-methyl-1-oxo-1,3-di-hydroisobenzofuran-5-yl)morpholino)methyl)-[2,2′-bipyridine]-5-carbonitrile] | 120 | 20 |
| Cc1c([C@@H]2CN(Cc3ccc(-n4cnc(C#N)c4)nc3)CCO2)ccc2c1COC2=O [Example 37-I, (R)-1-(5-((2-(4-methyl-1-oxo-1,3-dihydroiso-benzofuran-5-yl)morpho-lino)methyl)pyridin-2-yl)-1H-imidazole-4-carbonitrile] | 16 | 6.2 |
| Cc1c([C@@H]2CN(Cc3cnn(-c4ccc(C#N)cc4)c3)CCO2)ccc2c1COC2=O [Example 40-I, (R)-4-(4-((2-(4-methyl-1-oxo-1,3-dihydroiso-benzofuran-5-yl)morpho-lino)methyl)-1H-pyrazol-1-yl)benzonitrile] | 27 | 54 |
| Cc1cc(-n2cc(CN3CCO[C@H](c4ccc5c(c4C)COC5=O)C3)cn2)ccc1C#N [Example 46-I, (R)-2-methyl-4-(4-((2-(4-methyl-1-oxo-1,3-dihydroisobenzofuran-5-yl)morpholino)methyl)-1H-pyrazol-1-yl) benzonitrile] | 26 | 43 |
| Cc1cc(C#N)ccc1-n1cc(CN2CCO[C@H](c3ccc4c(c3C)COC4=O)C2)cn1 [Example 47-I, (R)-3-methyl-4-(4-((2-(4-methyl-1-oxo-1,3-dihydroisobenzofuran-5-yl)morpholino)methyl)-1H-pyrazol-1-yl) benzonitrile] | 49 | 49 |
| COc1cc(C#N)ccc1-n1cc(CN2CCO[C@H](c3ccc4c(c3C)COC4=O)C2)cn1 [Example 51-I, (R)-3-methoxy-4-(4-((2-(4-methyl-1-oxo-1,3-dihydroisobenzofuran-5-yl)morpholino)methyl)-1H-pyrazol-1-yl) benzonitrile] | 29 | 43 |
| Cc1cc(-n2cc(CN3CCO[C@H](c4ccc5c(c4C)COC5=O)C3)c(C)n2)ncc1C#N [Example 52-I, (R)-4-methyl-6-(3-methyl-4-((2-(4-methyl-1-oxo-1,3-dihydroisobenzo-furan-5-yl)morpholino)methyl)-1H-pyrazol-1-yl)nicotinonitrile] | 2.8 | 72 |
| Cc1c([C@@H]2CN(Cc3cnn(-c4cc(C)c5oc(=O)n(C)c5c4)c3)CCN2)ccc2c1COC2=O [Example 57-I, (R)-3,7-dimethyl-5-(4-((3-(4-methyl-1-oxo-1,3-dihydroisobenzofuran-5-yl)piperazin-1-yl)methyl)-1H-pyrazol-1-yl)benzo[d]oxazol-2(3H)-one] | 59 | 26 |
| COc1cc(-c2ccc(CN3CCN[C@H](c4ccc5c(c4C)COC5=O)C3)cn2)ncc1C#N [Example 63-I, (R)-4-methoxy-5′-((3-(4-methyl-1-oxo-1,3-di-hydroisobenzofuran-5-yl)piperazin-1-yl)methyl)-[2,2′-bipyridine]-5-carbonitrile] | 60 | 23 |
| Cc1c([C@@H]2CN(Cc3ccc(-n4cc(C#N)cn4)nc3)CCN2)ccc2c1COC2=O [Example 64-I, (R)-1-(5-((3-(4-methyl-1-oxo-1,3-dihydroiso-benzofuran-5-yl)piper-azin-1-yl)methyl)pyri-din-2-yl)-1H-pyrazole-4-carbonitrile] | 8.8 | 45 |
| Cc1cc(-n2cc(CN3CCN(C)[C@H](c4ccc5c(c4C)COC5=O)C3)cn2)ncc1C#N [Example 70-I, (R)-4-methyl-6-(4-((4-methyl-3-(4-methyl-1-oxo-1,3-dihydroisobenzo-furan-5-yl)piperazin-1-yl)methyl)-1H-pyra-zol-1-yl)nicotinonitrile] | 59 | 8.4 |
| Cc1cc(-n2cc(CN3CC[C@@H](O)[C@H](c4ccc5c(c4C)COC5=O)C3)nn2)ncc1C#N [Example 84-I, 6-(4-(((3R,4R)-4-hydroxy-3-(4-methyl-1-oxo-1,3-dihydroisobenzofuran-5-yl)piperidin-1-yl)methyl)-1H-1,2,3-triazol-1-yl)-4-methylnicotinonitrile] | 52 | 6.7 |
